Where two headings read alike, the source gives them in different places.
Molecular target: T1, chemokine receptor (RANTES / MIP-1α binding) on THP-1 cell membranes (Homo sapiens, UniProt P32246)
T1 sequence (P32246 1-355): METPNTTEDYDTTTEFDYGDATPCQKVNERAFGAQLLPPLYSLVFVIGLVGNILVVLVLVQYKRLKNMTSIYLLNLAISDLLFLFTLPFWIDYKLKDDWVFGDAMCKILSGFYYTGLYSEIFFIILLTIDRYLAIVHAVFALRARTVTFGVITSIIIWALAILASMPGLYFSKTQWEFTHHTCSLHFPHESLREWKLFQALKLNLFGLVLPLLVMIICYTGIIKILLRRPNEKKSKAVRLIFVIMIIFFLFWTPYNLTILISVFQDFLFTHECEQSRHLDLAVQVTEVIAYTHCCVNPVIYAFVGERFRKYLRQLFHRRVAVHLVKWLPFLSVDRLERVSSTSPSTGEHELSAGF
Assay: Receptor binding assay with 125I-RANTES or 125I-MIP-1α as ligand and THP-1 cell membranes
Procedure: Membranes were prepared from THP-1 cells (ATCC #TIB202). Cells were harvested by centrifugation, washed twice with PBS (phosphate-buffered saline), and the cell pellets were frozen at −70 to −85° C. […] This procedure results in cell lysis. The suspension was mixed well to resuspend all of the frozen cell pellet. Nuclei and cell debris were removed by centrifugation of 400× g for 10 minutes at 4° C. The supernatant was transferred to a fresh tube and the membrane fragments were collected by centrifugation at 25,000× g for 30 minutes at 4° C. The supernatant was aspirated and the pellet was resuspended in freezing buffer consisting of 10 mM HEPES pH 7.5, 300 mM sucrose, 1 μg/ml each aprotinin, leupeptin, and chymostatin, and 10 μg/ml PMSF approximately 0.1 ml per each 10^8 cells). All clumps were resolved using a minihomogenizer, and the total protein concentration was determined using a protein assay kit (Bio-Rad, Hercules, Calif., cat #500-0002). The membrane solution was then aliquoted and frozen at −70 to −85° C. until needed. Binding Assays utilized the membranes described above.

[1] = 125I-RANTES or 125I-MIP-1α as ligand, THP-1 cell membranes, 60 min at room temperature, read-out: IC50 (inhibitor concentration required for 50% inhibition of specific binding)

Compound | IC50 [1] [nM] | IC50 [nM]
N#CC1(CCCN2CCC(O)(c3ccc(Cl)cc3)CC2)c2ccccc2COc2ccc(Br)cc21 (centres unmarked) [Example 6, 1-[3-(2-Bromo-11-cyano-6,11-dihydrodibenz[b,e]oxepin-11-yl)propyl]-4-(4-chlorophenyl)piperidin-4-ol] | 300 | 
N#CC1(CCCN2CCC(O)(c3ccc(F)cc3)CC2)c2ccccc2COc2ccccc21 (centres unmarked) [Example 4, 1-[3-(11-Cyano-6,11-dihydrodibenz[b,e]oxepin-11-yl)propyl]-4-(4-fluorophenyl)piperidin-4-ol] | 390 | 
N#CC1(CCCN2CCC(O)(c3ccc(Cl)cc3)CC2)c2ccccc2C[S+]([O-])c2ccccc21 (single isomer, unassigned) [Example 14, 4-(4-Chlorophenyl)-1-[3-(11-cyano-6,11-dihydro-5-oxodibenzo[b,e]thiepin-11-yl)propyl]piperidin-4-ol] |  | 280
O=C(CCN1CCC(O)(c2ccc(Cl)cc2)CC1)C1c2ccccc2CCc2ccccc21 [Example 24, 4-(4-Chlorophenyl)-1-[3-(10,11-dihydro-5H-dibenzo[a,d]cycloheptene-5-yl)-3-propioyl]piperidin-4-ol] |  | 160
N#CC1(CCCN2CCC(O)(c3ccc(Br)cc3)CC2)c2ccccc2CSc2ccccc21 (centres unmarked) [Example 12, 4-(4-Bromophenyl)-1-[3-(11-cyano-6,11-dihydrodibenzo[b,e]thiepin-11-yl)propyl]piperidi n-4-ol] | 99 | 
N#CC1(CCCN2CCC(O)(c3ccc(Cl)cc3)CC2)c2ccccc2C=Cc2ccccc21 [Example 1, 4-(4-Chlorophenyl)1-[3-(5-cyano-5H-dibenzo[a,d]cycloheptene-5-yl)propyl]piperidin-4-ol] | 88 | 
O=C(NCC1(CCCN2CCC(O)(c3ccc(Cl)cc3)CC2)c2ccccc2CSc2ccccc21)Oc1ccccc1 (centres unmarked) [Example 22] |  | 690
OC1(c2ccc(Cl)cc2)CCN(CCCC2c3ccccc3CSc3ccccc32)CC1 (centres unmarked) [Example 17, 4-(4-Chlorophenyl)-1-[3-(6,11-dihydrodibenzo[b,e]thiepin-11-yl)propyl]piperidin-4-ol] | 70 | 
N#CC1(CCCN2CCC(O)(c3ccc(Cl)cc3)CC2)c2ccccc2CCc2ccccc21 [Example 2, 4-(4-Chlorophenyl)-1-[3-(5-cyano-10,11-dihydro-5H-dibenzo[a,d]cycloheptene-5-yl)propyl]piperidin-4-ol] |  | 52
N#CC1(CCCN2CCC(O)(c3ccc(Cl)cc3)CC2)c2ccccc2C[S+]([O-])c2ccccc21 (single isomer, unassigned) [Example 15, 4-(4-Chlorophenyl)-1-[3-(11-cyano-6,11-dihydro-5-oxodibenzo[b,e]thiepin-11-yl)propyl]piperidin-4-ol] |  | 610
N#CC1(CCCN2CCC(O)(c3ccc(Cl)cc3)CC2)c2ccccc2COc2ccc(F)cc21 (centres unmarked) [Example 5, 4-(4-Chlorophenyl)-1-[3-(11-cyano-6,11-dihydro-2-fluorodibenz[b,e]oxepin-11-yl)propyl]piperidin-4-ol] | 190 | 
N#CC1(CCCN2CCC(O)(c3ccccc3)CC2)c2ccccc2CSc2ccccc21 (centres unmarked) [Example 11, 1-[3-(1l-Cyano-6,11-dihydrodibenzo[b,e]thiepin-11-yl)propyl]-4-phenylpiperidin-4-ol] | 11000 | 
N#CC1(CCCN2CCC(O)(c3ccc(Cl)cc3)CC2)c2ccccc2CSc2ccc(Br)cc21 (centres unmarked) [Example 13, 1-[3-(2-Bromo-11-cyano-6,11-dihydrodibenzo[b,e]thiepin-11-yl)propyl]-4-(4-chlorophenyl)piperidin-4-ol] | 380 | 
N#CC1(CCCN2CCC(O)(c3ccc(Cl)cc3)CC2)c2ccccc2CS(=O)(=O)c2ccccc21 (centres unmarked) [Example 16, 4-(4-Chlorophenyl)-1-[3-(11-cyano-6,11-dihydro-5,5-dioxodibenzo[b,e]thiepin-11-yl)propyl]piperidin-4-ol] | 79 | 
1-[2-[3-[4-(4-chlorophenyl)-4-hydroxypiperidino]propyl]-2-(6,11-dihydrodibenzo[b,e]thiepi n-11-yl)ethyl]-3-(hydroxypropyl)urea [Example 23] | 2200 | 
Cc1ccc2c(c1)C(C#N)(CCCN1CCC(O)(c3ccc(Cl)cc3)CC1)c1ccccc1CO2 (centres unmarked) [Example 7, 4-(4-Chlorophenyl)-1-[3-(11-cyano-6,11-dihydro-2-methyldibenz[b,e]oxepin-11-yl)propyl]piperidin-4-ol] | 380 | 
N#CC1(CCCN2CCC(O)(c3ccc(Cl)cc3)CC2)c2ccccc2CSc2ccccc21 (centres unmarked) [Example 10, 4-(4-Chlorophenyl)-1-[3-(11-cyano-6,11-dihydrodibenzo[b,e]thiepin-11-yl)propyl] piperidin-4-ol] |  | 97
OC1(c2ccc(Cl)cc2)CCN(CCCC2c3ccccc3COc3ccccc32)CC1 (centres unmarked) [Example 19, 4-(4-Chlorophenyl)-1-[3-(6,11-dihydrodibenz[b,e]oxepin-11-yl)propyl]piperidin-4-ol] | 59 | 
N#CC1(CCCN2CCC(O)(c3ccc(Cl)cc3)CC2)c2ccccc2COc2ccccc21 (centres unmarked) [Example 3, 4-(4-Chlorophenyl)-1-[3-(11-cyano-6,11-dihydrodibenz[b,e]oxepin-11-yl)propyl]piperidin-4-ol] | 110 | 
OC1(c2ccc(Cl)cc2)CCN(CCCC2c3ccccc3CCc3ccccc32)CC1 [Example 18, 4-(4-Chlorophenyl)-1-[3-(10,11-dihydro-5H-dibenzo[a,d]cycloheptene-5-yl)propyl]piperidin-4-ol] | 55 | 

From patent US20020151553A1, “Chemokine receptor antagonists and methods of use therefor” (Millennium Pharmaceuticals, Inc., priority 1996, published 2002)
